# Laboratory results reported in ChEMBL document CHEMBL1128167, “(3R, 4S)-3-Benzyl-4-bromomethyloxetan-2-one, a fast acting alternate substrate inhibitor of -chymotrypsin” (Bioorg Med Chem Lett, 1995).
# Tests used:
# Chymotrypsinogen B [1] = target: T1, Chymotrypsinogen B (Homo sapiens, UniProt P17538); test: (§1) Inhibition of Alpha-chymotrypsin was determined by competitive substrate assay method
# Chymotrypsinogen B [2] = target: T1, Chymotrypsinogen B; test: as §1; remark: listed apart in the source
# T1 sequence (P17538 34-164 limits assumed, other chains not shown): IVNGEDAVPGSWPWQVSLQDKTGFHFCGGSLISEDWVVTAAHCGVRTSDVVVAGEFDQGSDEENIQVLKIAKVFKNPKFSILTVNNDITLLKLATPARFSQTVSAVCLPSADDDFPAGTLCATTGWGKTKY
# T1 sequence (P17538 167-263 limits assumed, other chains not shown): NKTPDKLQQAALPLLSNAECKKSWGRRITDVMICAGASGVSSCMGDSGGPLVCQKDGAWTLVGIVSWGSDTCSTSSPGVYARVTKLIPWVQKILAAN
structure (smiles),measurement,setting,value
O=C1O[C@H](CBr)[C@H]1Cc1ccccc1,Ki,Chymotrypsinogen B [1],2550 nM
same,Ka,Chymotrypsinogen B [2],2.94 min⁻¹
